Data as given in patent US12568972B2, “Pyridazinol compounds and derivatives, preparation methods, herbicidal compositions and applications thereof” (Qingdao Kingagroot Chemical Compound Co., Ltd., priority 2018, dated 2026).

How the values were obtained:
Assay in all cases: Post-emergence test, weed control effect
Type in all cases: in vivo
Conditions in all cases: Dose 3000 g/ha, after 3 weeks
[1] = system: Rorippa indica
From the text: (§1) The activity level standard of harmful plant destruction (i.e. growth inhibition rate) is as follows: • Level 10: completely dead; • Level 9: above 90% growth inhibition rate; • Level 8: above 80% growth inhibition rate; • Level 7: above 70% growth inhibition rate; • Level 6: above 60% growth inhibition rate; • Level 5: above 50% growth inhibition rate; • Level 4: above 40% growth inhibition rate; • Level 3: above 30% growth inhibition rate; • Level 2: above 20% growth inhibition rate; • Level 1: below 20% growth inhibition rate; • Level 0: no effect.
(§2) The above described growth inhibition rates are fresh weight inhibition rates.
(§3) Experiment of post-emergence test: monocotyledonous and dicotyledonous weed seeds as well as main crop seeds (i.e., wheat, corn, rice, soybean, cotton, oilseed rape, millet and sorghum) were put into a plastic pot loaded with soil, then covered with 0.5-2 cm of soil, and the seeds were allowed to grow in good greenhouse environment. The test plants were treated at 2-3 leaf stage 2-3 weeks after sowing. The test compounds of the invention were dissolved in acetone respectively, then added with Tween-80 and diluted by a certain amount of water to give solutions with certain concentrations, and added with 80% vegetable oil methyl ester synergist at 1500 g/ha. The solution was sprayed to the plants with a sprayer. The plants were cultured for 3 weeks in the greenhouse.

[2] = system: Veronica polita
From the text: as §1, §2, §3

[3] = system: Amaranthus retroflexus
From the text: as §1, §2, §3

[4] = system: Chenopodiaceae
From the text: as §1, §2, §3

CCCCCCCSC(=O)Oc1cc(C(F)(F)F)nnc1-c1ccc(Cl)c(Cl)c1 [Compound 1-53]
10: weed control effect, Rorippa indica (activity level) [1] | weed control effect, Veronica polita (activity level) [2] | weed control effect, Amaranthus retroflexus (activity level) [3] | weed control effect, Chenopodiaceae (activity level) [4]

CCCCCCCCSC(=O)Oc1cc(C(F)(F)F)nnc1-c1ccc(F)cc1 [Compound 1-54]
10: weed control effect, Rorippa indica (activity level) [1] | weed control effect, Veronica polita (activity level) [2] | weed control effect, Amaranthus retroflexus (activity level) [3] | weed control effect, Chenopodiaceae (activity level) [4]

O=C(Oc1cc(C(F)(F)F)nnc1-c1ccccc1)SC1CCCCC1 [Compound 1-58]
10: weed control effect, Rorippa indica (activity level) [1] | weed control effect, Veronica polita (activity level) [2] | weed control effect, Amaranthus retroflexus (activity level) [3] | weed control effect, Chenopodiaceae (activity level) [4]

CN(C)C(=O)Oc1cc(C(F)(F)F)nnc1-c1ccc(F)c(F)c1 [Compound 1-60]
10: weed control effect, Rorippa indica (activity level) [1] | weed control effect, Veronica polita (activity level) [2] | weed control effect, Amaranthus retroflexus (activity level) [3] | weed control effect, Chenopodiaceae (activity level) [4]

CCON(C)C(=O)Oc1cc(C(F)(F)F)nnc1-c1ccc(F)cc1 [Compound 1-63]
10: weed control effect, Rorippa indica (activity level) [1] | weed control effect, Veronica polita (activity level) [2] | weed control effect, Amaranthus retroflexus (activity level) [3] | weed control effect, Chenopodiaceae (activity level) [4]

CN1CCN(C(=O)Oc2cc(C(F)(F)F)nnc2-c2ccc(F)cc2)CC1 [Compound 1-64]
10: weed control effect, Rorippa indica (activity level) [1] | weed control effect, Veronica polita (activity level) [2] | weed control effect, Amaranthus retroflexus (activity level) [3] | weed control effect, Chenopodiaceae (activity level) [4]

O=C(Oc1cc(C(F)(F)F)nnc1-c1ccccc1)N1CCOCC1 [Compound 1-65]
10: weed control effect, Rorippa indica (activity level) [1] | weed control effect, Veronica polita (activity level) [2] | weed control effect, Amaranthus retroflexus (activity level) [3] | weed control effect, Chenopodiaceae (activity level) [4]

O=C(Oc1cc(C(F)(F)F)nnc1-c1ccc(F)c(F)c1)N1CCOCC1 [Compound 1-66]
10: weed control effect, Rorippa indica (activity level) [1] | weed control effect, Veronica polita (activity level) [2] | weed control effect, Amaranthus retroflexus (activity level) [3] | weed control effect, Chenopodiaceae (activity level) [4]

O=C(Oc1cc(C(F)(F)F)nnc1-c1ccc(F)cc1)N1CCCCC1 [Compound 1-67]
10: weed control effect, Rorippa indica (activity level) [1] | weed control effect, Veronica polita (activity level) [2] | weed control effect, Amaranthus retroflexus (activity level) [3] | weed control effect, Chenopodiaceae (activity level) [4]

O=C(Oc1cc(C(F)(F)F)nnc1-c1ccc(F)cc1)N1CCOCC1 [Compound 1-68]
10: weed control effect, Rorippa indica (activity level) [1] | weed control effect, Veronica polita (activity level) [2] | weed control effect, Amaranthus retroflexus (activity level) [3] | weed control effect, Chenopodiaceae (activity level) [4]

O=C1CCCCN1C(=O)Oc1cc(C(F)(F)F)nnc1-c1ccc(F)cc1 [Compound 1-69]
10: weed control effect, Rorippa indica (activity level) [1] | weed control effect, Veronica polita (activity level) [2] | weed control effect, Amaranthus retroflexus (activity level) [3] | weed control effect, Chenopodiaceae (activity level) [4]

COC(=O)CCCCC(=O)Oc1cc(C(F)(F)F)nnc1-c1ccc(F)cc1 [Compound 1-70]
10: weed control effect, Rorippa indica (activity level) [1] | weed control effect, Veronica polita (activity level) [2] | weed control effect, Amaranthus retroflexus (activity level) [3] | weed control effect, Chenopodiaceae (activity level) [4]

COCC(=O)Oc1cc(C(F)(F)F)nnc1-c1ccc(F)c(F)c1 [Compound 1-71]
10: weed control effect, Rorippa indica (activity level) [1] | weed control effect, Veronica polita (activity level) [2] | weed control effect, Amaranthus retroflexus (activity level) [3] | weed control effect, Chenopodiaceae (activity level) [4]

CCO/C=C/C(=O)Oc1cc(C(F)(F)F)nnc1-c1cccc(F)c1 [Compound 1-75]
10: weed control effect, Rorippa indica (activity level) [1] | weed control effect, Veronica polita (activity level) [2] | weed control effect, Amaranthus retroflexus (activity level) [3] | weed control effect, Chenopodiaceae (activity level) [4]

CC(=O)CC(=O)Oc1cc(C(F)(F)F)nnc1-c1ccc(F)cc1 [Compound 1-76]
10: weed control effect, Rorippa indica (activity level) [1] | weed control effect, Veronica polita (activity level) [2] | weed control effect, Amaranthus retroflexus (activity level) [3] | weed control effect, Chenopodiaceae (activity level) [4]

CSCCC(=O)Oc1cc(C(F)(F)F)nnc1-c1ccc(F)c(F)c1 [Compound 1-77]
10: weed control effect, Rorippa indica (activity level) [1] | weed control effect, Veronica polita (activity level) [2] | weed control effect, Amaranthus retroflexus (activity level) [3] | weed control effect, Chenopodiaceae (activity level) [4]

CP(=O)(O)CCC(N)C(=O)Oc1cc(C(F)(F)F)nnc1-c1ccc(F)cc1 (stereo not drawn) [Compound 1-78]
10: weed control effect, Rorippa indica (activity level) [1] | weed control effect, Veronica polita (activity level) [2] | weed control effect, Amaranthus retroflexus (activity level) [3] | weed control effect, Chenopodiaceae (activity level) [4]

O=C(Oc1cc(C(F)(F)F)nnc1-c1ccc(F)c(F)c1)c1ccccc1 [Compound 1-79]
10: weed control effect, Rorippa indica (activity level) [1] | weed control effect, Veronica polita (activity level) [2] | weed control effect, Amaranthus retroflexus (activity level) [3] | weed control effect, Chenopodiaceae (activity level) [4]

Cc1ccc(-c2nnc(C(F)(F)F)cc2OC(=O)c2ccccc2C)cc1 [Compound 1-80]
10: weed control effect, Rorippa indica (activity level) [1] | weed control effect, Veronica polita (activity level) [2] | weed control effect, Amaranthus retroflexus (activity level) [3] | weed control effect, Chenopodiaceae (activity level) [4]

O=C(Oc1cc(C(F)(F)F)nnc1-c1ccc(Cl)cc1)c1ccccc1Cl [Compound 1-83]
10: weed control effect, Rorippa indica (activity level) [1] | weed control effect, Veronica polita (activity level) [2] | weed control effect, Amaranthus retroflexus (activity level) [3] | weed control effect, Chenopodiaceae (activity level) [4]

COc1ccc(C(=O)Oc2cc(C(F)(F)F)nnc2-c2ccc(F)c(F)c2)cc1 [Compound 1-84]
10: weed control effect, Rorippa indica (activity level) [1] | weed control effect, Veronica polita (activity level) [2] | weed control effect, Amaranthus retroflexus (activity level) [3] | weed control effect, Chenopodiaceae (activity level) [4]

O=C(Oc1cc(C(F)(F)F)nnc1-c1ccc(F)cc1)c1ccccc1O [Compound 1-85]
10: weed control effect, Rorippa indica (activity level) [1] | weed control effect, Veronica polita (activity level) [2] | weed control effect, Amaranthus retroflexus (activity level) [3] | weed control effect, Chenopodiaceae (activity level) [4]

CC(=O)Oc1ccccc1C(=O)Oc1cc(C(F)(F)F)nnc1-c1ccccc1 [Compound 1-87]
10: weed control effect, Rorippa indica (activity level) [1] | weed control effect, Veronica polita (activity level) [2] | weed control effect, Amaranthus retroflexus (activity level) [3] | weed control effect, Chenopodiaceae (activity level) [4]

O=C(Oc1cc(C(F)(F)F)nnc1-c1ccc(C(F)(F)F)cc1)c1cccc(OC(F)(F)F)c1 [Compound 1-88]
10: weed control effect, Rorippa indica (activity level) [1] | weed control effect, Veronica polita (activity level) [2] | weed control effect, Amaranthus retroflexus (activity level) [3] | weed control effect, Chenopodiaceae (activity level) [4]

CN(C)c1ccc(C(=O)Oc2cc(C(F)(F)F)nnc2-c2cccc(F)c2)cc1 [Compound 1-90]
10: weed control effect, Rorippa indica (activity level) [1] | weed control effect, Veronica polita (activity level) [2] | weed control effect, Amaranthus retroflexus (activity level) [3] | weed control effect, Chenopodiaceae (activity level) [4]

O=C(Oc1cc(C(F)(F)F)nnc1-c1ccc(F)cc1)c1ccc(Cl)cc1Cl [Compound 1-91]
10: weed control effect, Rorippa indica (activity level) [1] | weed control effect, Veronica polita (activity level) [2] | weed control effect, Amaranthus retroflexus (activity level) [3] | weed control effect, Chenopodiaceae (activity level) [4]

O=C(Oc1cc(C(F)(F)F)nnc1-c1ccc(F)cc1)c1cc(F)cc(F)c1F [Compound 1-93]
10: weed control effect, Rorippa indica (activity level) [1] | weed control effect, Veronica polita (activity level) [2] | weed control effect, Amaranthus retroflexus (activity level) [3] | weed control effect, Chenopodiaceae (activity level) [4]
